Assay results taken from patent US20230348426A1, “OXOPYRROLIDINE FPR2 AGONISTS” (Bristol-Myers Squibb Company, priority 2020, published 2023).

Columns and labels:
human FPR2 = human FPR2 (Homo sapiens (Human), UniProt P25090); assay: FPR2 cyclic adenosine monophosphate (cAMP) assay; type: cell-based; details: CHO cells overexpressing human FPR2; forskolin 5 µM; inhibition of cAMP production; read-out: hFPR2 cAMP2 EC50
Text: (§1) N-formyl peptide receptors (FPRs) are a family of chemo attractant receptors that facilitate leukocyte response during inflammation. FPRs belong to the seven-transmembrane G protein-coupled receptor superfamily and are linked to inhibitory G-proteins (Gi). Three family members (FPR1, FPR2 and FPR3) have been identified in humans and are predominantly found in myeloid cells with varied distribution and have also been reported in multiple organs and tissues. After agonist binding, the FPRs activate a multitude of physiological pathways, such as intra cellular signaling transduction, Ca^2+ mobilization and transcription. The family interacts with a diverse set of ligands that includes proteins, polypeptides and fatty acid metabolites which activate both pro-inflammatory and pro-resolution downstream responses. FPR2 and FPR1 Cyclic Adenosine Monophosphate (cAMP) Assays were used to measure the activity of the compounds in this patent.
(§2) FPR2 and FPR1 Cyclic Adenosine Monophosphate (cAMP) Assays. A mixture of forskolin (5 µM final for FPR2 or 10 µM final for FPR1) and IBMX (200 µM final) were added to 384-well Proxiplates (Perkin-Elmer) pre-dotted with test compounds in DMSO (1% final) at final concentrations in the range of 0.020 nM to 100 µM. Chinese Hamster Ovary cells (CHO) overexpressing human FPR1 or human FPR2 receptors were cultured in F-12 (Ham’s) medium supplemented with 10% qualified FBS, 250 µg/ml zeocin and 300 µg/ml hygromycin (Life Technologies). Reactions were initiated by adding 2,000 human FPR2 cells per well or 4,000 human FPR1 cells per well in Dulbecco’s PBS (with calcium and magnesium) (Life Technologies) supplemented with 0.1% BSA (Perkin-Elmer). The reaction mixtures were incubated for 30 min at room temperature. The level of intracellular cAMP was determined using the HTRF HiRange cAMP assay reagent kit (Cisbio) according to manufacturer’s instruction. Solutions of cryptate conjugated anti-cAMP and d2 flurorophore-labelled cAMP were made in a supplied lysis buffer separately. Upon completion of the reaction, the cells were lysed with equal volume of the d2-cAMP solution and anti-cAMP solution. After a 1-h room temperature incubation, time-resolved fluorescence intensity was measured using the Envision (Perkin-Elmer) at 400 nm excitation and dual emission at 590 nm and 665 nm. A calibration curve was constructed with an external cAMP standard at concentrations ranging from 1 µM to 0.1 pM by plotting the fluorescent intensity ratio from 665 nm emission to the intensity from the 590 nm emission against cAMP concentrations. The potency and activity of a compound to inhibit cAMP production was then determined by fitting to a 4-parametric logistic equation from a plot of cAMP level versus compound concentrations.

human FPR1 = human FPR1 (Homo sapiens (Human), UniProt P21462); assay: FPR1 cyclic adenosine monophosphate (cAMP) assay; type: cell-based; details: CHO cells overexpressing human FPR1; forskolin 10 µM; inhibition of cAMP production; read-out: hFPR1 cAMP EC50
Text: as §1
as §2, with “After a 1-h room temperature incubation, time-resolved fluorescence intensity was measured using the Envision (Perkin-Elmer) at 400 nm excitation and dual emission at 590 nm and 665 nm. A calibration curve was constructed with an external cAMP standard at concentrations ranging from 1 µM to 0.1 pM by plotting the fluorescent intensity ratio from 665 nm emission to the intensity from the 590 nm emission against cAMP concentrations.” left out

Chain of human FPR1 (P21462 whole entry): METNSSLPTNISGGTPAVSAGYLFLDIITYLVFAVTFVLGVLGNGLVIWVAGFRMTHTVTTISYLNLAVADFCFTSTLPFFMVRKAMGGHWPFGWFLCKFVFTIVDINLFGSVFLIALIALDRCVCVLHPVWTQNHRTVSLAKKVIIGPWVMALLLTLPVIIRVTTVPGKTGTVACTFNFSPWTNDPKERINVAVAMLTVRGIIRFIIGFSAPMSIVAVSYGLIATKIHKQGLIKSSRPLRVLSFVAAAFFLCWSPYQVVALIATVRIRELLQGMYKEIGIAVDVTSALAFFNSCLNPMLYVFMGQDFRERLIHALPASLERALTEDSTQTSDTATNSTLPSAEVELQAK
Chain of human FPR2 (P25090 whole entry): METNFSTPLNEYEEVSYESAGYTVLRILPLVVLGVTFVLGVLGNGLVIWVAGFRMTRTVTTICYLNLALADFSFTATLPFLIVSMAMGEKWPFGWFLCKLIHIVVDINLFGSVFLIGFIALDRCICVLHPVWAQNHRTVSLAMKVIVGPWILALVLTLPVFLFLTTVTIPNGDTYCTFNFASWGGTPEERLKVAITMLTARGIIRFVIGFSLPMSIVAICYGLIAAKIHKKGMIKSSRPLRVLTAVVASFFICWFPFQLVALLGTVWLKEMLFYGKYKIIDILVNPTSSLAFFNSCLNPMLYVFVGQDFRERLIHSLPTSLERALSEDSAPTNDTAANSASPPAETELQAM

| Compound | EC50 (human FPR2) | EC50 (human FPR1) |
| --- | --- | --- |
| COc1cc(F)c([C@@H]2CN(c3nc(N(C)C(C)=O)ccc3F)C(=O)[C@H]2NC(=O)c2ccc(OC(F)F)cc2)c(F)c1 [Example 177] | 4.6 nM | 15 nM |
| O=C(N[C@@H]1C(=O)N(c2cccn(CCO)c2=O)C[C@H]1c1ccc(Cl)cc1)c1ccc(OC(F)F)cc1 [Example 110] | 2.9 nM | 20 nM |
| COCC(C(=O)N(C)C)n1cccc(N2C[C@@H](c3c(F)cc(OC)cc3F)[C@H](NC(=O)c3ccc(OC(F)(F)F)cc3)C2=O)c1=O (some centres unmarked) [Example 134] | 3.5 nM | 1.6 nM |
| COc1cc(F)c([C@@H]2CN(c3cccn(CC(C)O)c3=O)C(=O)[C@H]2NC(=O)c2ccc(OC(F)F)cc2)c(F)c1 (some centres unmarked) [Example 141] | 3.6 nM | 29 nM |
| COc1ccc([C@@H]2CN(c3cccn(CCO)c3=O)C(=O)[C@H]2NC(=O)c2ccc(OC(F)(F)F)cc2)cc1 [Example 64] | 1.7 nM | 7.2 nM |
| COc1cc(F)c([C@@H]2CN(c3c(C)ccn(C(CO)C(F)(F)F)c3=O)C(=O)[C@H]2NC(=O)c2ccc(OC(F)F)cc2)c(F)c1 (some centres unmarked) [Example 706] | 9.4 nM | 19 nM |
| COc1cc(F)c([C@@H]2CN(c3nc(N4CCCC4=O)ccc3F)C(=O)[C@H]2NC(=O)c2ccc(OC(F)F)cc2)c(F)c1 [Example 280] | 8.2 nM | 26 nM |
| COc1cc(F)c([C@@H]2CN(c3c(C)c4c(n(CCO)c3=O)CCC4)C(=O)[C@H]2NC(=O)c2ccc(OC(F)(F)F)cc2)c(F)c1 [Example 592] | 7.1 nM | 6.2 nM |
| COc1cc(F)c([C@@H]2CN(c3cccn4c(C)nnc34)C(=O)[C@H]2NC(=O)c2ccc(Cl)cc2)c(F)c1 [Example 603] | 3.9 nM | 56 nM |
| CCn1cccc(N2C[C@@H](c3c(F)cc(OC)cc3F)[C@H](NC(=O)c3ccc(OC(F)F)cc3)C2=O)c1=O [Example 38] | 5.1 nM | 18 nM |
| COc1ccc([C@@H]2CN(c3ccnn(CCC(F)(F)F)c3=O)C(=O)[C@H]2NC(=O)c2ccc(OC(F)F)cc2)cc1 [Example 672] | 7.9 nM | 5 nM |
| COc1cc(F)c([C@@H]2CN(c3cccnc3C#N)C(=O)[C@H]2NC(=O)c2ccc(OC(F)(F)F)cc2)c(F)c1 [Example 21] | 35 nM | 2300 nM |
| COc1cc(F)c([C@@H]2CN(c3cccn(CC(O)CO)c3=O)C(=O)[C@H]2NC(=O)c2ccc(Cl)cc2)c(F)c1 (some centres unmarked) [Example 680] | 2.8 nM | 780 nM |
| CCn1cccc(N2C(=O)[C@@H](NC(=O)c3ccc(OC(F)(F)F)cc3)[C@H](c3c(F)cc(OC)cc3F)[C@H]2C)c1=O [Example 242] | 6.7 nM | 110 nM |
| COc1cc(F)c([C@@H]2CN(c3nccc(OC4CCOC4)c3C(F)(F)F)C(=O)[C@H]2NC(=O)c2ccc(Cl)cc2)c(F)c1 (some centres unmarked) [Example 709] | 14 nM | 210 nM |
| COc1cc(F)c([C@@H]2CN(c3cccc(P(C)(C)=O)n3)C(=O)[C@H]2NC(=O)c2ccc(Cl)cc2)c(F)c1 [Example 511] | 66 nM | 390 nM |
| COc1cc(F)c([C@@H]2CN(c3cccn(CCN4CC5(COC5)C4)c3=O)C(=O)[C@H]2NC(=O)c2ccc(OC(F)(F)F)cc2)c(F)c1 [Example 210] | 5.5 nM | 190 nM |
| COc1cc(C2CCN(CCF)CC2)nc(N2C(=O)[C@@H](NC(=O)c3ccc(OC(F)F)cc3)[C@H](c3c(F)cc(OC)cc3F)[C@@H]2C)c1 [Example 711] | 4.2 nM | 3400 nM |
| COc1cc(F)c([C@@H]2CN(c3cncn(CCO)c3=O)C(=O)[C@H]2NC(=O)c2ccc(OC(F)F)cc2)c(F)c1 [Example 488] | 2.6 nM | 790 nM |

| Compound | EC50 (human FPR2) | EC50 (human FPR1) |
| --- | --- | --- |
| COCCn1ncc(C)c(N2C[C@@H](c3c(F)cc(OC)cc3F)[C@H](NC(=O)c3ccc(OC(F)F)cc3)C2=O)c1=O [Example 658] | 3.4 nM | 1.7 nM |
| COc1cc(F)c([C@@H]2CN(c3nccc(NC4CCOC4)c3C(F)(F)F)C(=O)[C@H]2NC(=O)c2ccc(Cl)cc2)c(F)c1 (some centres unmarked) [Example 125] | 3.3 nM | 1100 nM |
| COc1cc(F)c([C@@H]2CN(c3cncn(C4CCNC4)c3=O)C(=O)[C@H]2NC(=O)c2ccc(Cl)cc2)c(F)c1 (some centres unmarked) [Example 710] | 4 nM | 490 nM |
| COc1cc(F)c([C@@H]2CN(c3cccn(CC(C)(CO)CO)c3=O)C(=O)[C@H]2NC(=O)c2ccc(OC(F)(F)F)cc2)c(F)c1 [Example 187] | 4.9 nM | 38 nM |
| COc1cc(F)c([C@@H]2CN(c3c(C)ccn([C@H]4COC[C@@H]4O)c3=O)C(=O)[C@H]2NC(=O)c2ccc(OC(F)(F)F)cc2)c(F)c1 [Example 622] | 8.4 nM | 2.2 nM |
| COCC(CO)n1cccc(N2C[C@@H](c3c(F)cc(OC)cc3F)[C@H](NC(=O)c3ccc(OC(F)F)cc3)C2=O)c1=O (some centres unmarked) [Example 133] | 3.4 nM | 12 nM |
| COc1cc(F)c([C@@H]2CN(c3ccc(CO)n(C)c3=O)C(=O)[C@H]2NC(=O)c2ccc(OC(F)F)cc2)c(F)c1 [Example 243] | 6.7 nM | 170 nM |
| COc1cc(F)c([C@@H]2CN(c3nc(N4CCN(C)CC4)ccc3C(F)F)C(=O)[C@H]2NC(=O)c2ccc(Cl)cc2)c(F)c1 [Example 333] | 14 nM | 5700 nM |
| COc1ccc([C@@H]2CN(c3c(C)ccn(C4CCC4)c3=O)C(=O)[C@H]2NC(=O)c2ccc(OC(F)F)cc2)cc1 [Example 577] | 0.6 nM | 0.2 nM |
| COc1cc(F)c([C@@H]2CN(c3c(C)ccn(CC4CCO4)c3=O)C(=O)[C@H]2NC(=O)c2ccc(OC(F)F)cc2)c(F)c1 (some centres unmarked) [Example 617] | 9.1 nM | 18 nM |
| COCC(CO)n1cccc(N2C[C@@H](c3c(F)cc(OC)cc3F)[C@H](NC(=O)c3ccc(OC(F)(F)F)cc3)C2=O)c1=O (some centres unmarked) [Example 153] | 4 nM | 4.2 nM |
| COc1cc(F)c([C@@H]2CN(c3nc(N4C[C@H]5C[C@@H]4CO5)ccc3F)C(=O)[C@H]2NC(=O)c2ccc(OC(F)F)cc2)c(F)c1 [Example 256] | 7.2 nM | 530 nM |
| COc1cc(F)c([C@@H]2CN(c3ccc[nH]c3=O)C(=O)[C@H]2NC(=O)c2ccc(Cl)cc2)c(F)c1 [Example 87] | 2.3 nM | 750 nM |
| COc1cc(F)c([C@@H]2CN(c3cccc(C4CCN(CCO)CC4)n3)C(=O)[C@H]2NC(=O)c2ccc(OC(F)F)cc2)c(F)c1 [Example 527] | 1.3 nM | 770 nM |
| COc1cc(F)c([C@H]2[C@H](NC(=O)c3ccc(OC(F)F)cc3)C(=O)N(c3ncccc3OC(C)C)[C@H]2C)c(F)c1 [Example 126] | 3.3 nM | 2300 nM |
| CCn1cccc(N2C[C@@H](c3c(F)cc(OC)cc3F)[C@H](NC(=O)c3ccc(Cl)cc3)C2=O)c1=O [Example 98] | 2.7 nM | 43 nM |
| COCC(C(=O)N(C)C)n1cccc(N2C[C@@H](c3ccc(Cl)cc3)[C@H](NC(=O)c3ccc(OC(F)(F)F)cc3)C2=O)c1=O (some centres unmarked) [Example 245] | 6.8 nM | 1.1 nM |
| COc1cc(F)c([C@@H]2CN(c3ccc4n(c3=O)CCOC4=O)C(=O)[C@H]2NC(=O)c2ccc(OC(F)F)cc2)c(F)c1 [Example 668] | 8.8 nM | 210 nM |
